Assays:
Type in all cases: in vivo
[1] = system: crabgrass, Brazil (Brazilian crabgrass, Digitaria horizontalis); assay: Test E pre-/postemergence: crabgrass, Brazil; conditions: Preemergence, scale 0 to 100
Text: (§1) Seeds of plant species selected from corn (Zea mays), soybean (Glycine max), velvetleaf (Abutilon theophrasti), lambsquarters (Chenopodium album), poinsettia, wild (wild poinsettia, Euphorbia heterophylla), pigweed, palmer (palmer pigweed, Amaranthus palmeri), waterhemp (common waterhemp, Amaranthus rudis), smartweed (ladysthumb smartweed, Polygonum persicaria), surinam grass (Brachiaria decumbens), crabgrass, large (large crabgrass, Digitaria sanguinalis), crabgrass, Brazil (Brazilian crabgrass, Digitaria horizontalis), panicum, fall (fall panicum, Panicum dichotomiflorum), foxtail, giant (giant foxtail, Setaria faberii), foxtail, green (green foxtail, Setaria viridis), goosegrass (Eleusine indica), johnsongrass (Sorghum halepense), ragweed (common ragweed, Ambrosia elation), barnyardgrass (Echinochloa crus-galli), sandbur (southern sandbur, Cenchrus echinatus), arrowleaf sida (Sida rhombifolia), ryegrass, Italian (Italian ryegrass, Lolium multiflorum), dayflower, (VA) (Virginia dayflower, Commelina virginica), field bindweed (Convolvulus arvensis), cocklebur (common cocklebur, Xanthium strumarium), morningglory (Ipomoea coccinea), nightshade (eastern black nightshade, Solanum ptycanthum), kochia (Kochia scoparia), nutsedge, yellow (yellow nutsedge, Cyperus esculentus) and beggarticks (hairy beggarticks, Bidens pilosa) were planted into a silt loam soil and treated preemergence with test chemicals formulated in a non-phytotoxic solvent mixture which included a surfactant. At the same time, plants selected from these crop and weed species were planted in pots containing a growing medium comprising spaghnum peat moss, vermiculite, wetting agent and starter nutrients and treated with postemergence applications of some of the test chemicals formulated in the same manner. Plants ranged in height from 2 to 18 cm for postemergence treatments (1- to 4-leaf stage).
(§2) Treated plants and controls were maintained in a greenhouse for 14 to 21 days, after which time all species were compared to controls and visually evaluated. Plant response ratings, summarized in Table E, are based on a scale of 0 to 100 where 0 is no effect and 100 is complete control. A dash (-) response means no test result.

[2] = system: foxtail, green (green foxtail, Setaria viridis); assay: Test E pre-/postemergence: foxtail, green; conditions: Preemergence, scale 0 to 100
Text: as §1, §2

Waterhemp = assay: Test C pre-/postemergence: waterhemp
Text: Seeds of plant species selected from blackgrass (Alopecurus myosuroides), bromegrass, downy (downy bromegrass, Bromus tectorum), foxtail, green (green foxtail, Setaria viridis), ryegrass, Italian (Italian ryegrass, Lolium multiflorum), winter wheat (Triticum aestivum), wild oat (Avena fatua), galium (catchweed bedstraw, Galium aparine), bermudagrass (Cynodon dactylon), surinam grass (Brachiaria decumbens), cocklebur (common cocklebur, Xanthium strumarium), corn (Zea mays), large crabgrass (Digitaria sanguinalis), woolly cupgrass (Eriochloa villosa), foxtail, giant (giant foxtail, Setaria faberii), goosegrass (Eleusine indica), johnsongrass (Sorghum halepense), kochia (Kochia scoparia), lambsquarters (Chenopodium album), morningglory (Ipomoea coccinea), nightshade (eastern black nightshade, Solanum ptycanthum), nutsedge, yellow (yellow nutsedge, Cyperus esculentus), pigweed (Amaranthus retroflexus), ragweed (common ragweed, Ambrosia elation), soybean (Glycine max), common (oilseed) sunflower (Helianthus annuus), Russian thistle (Salsola kali) and velvetleaf (Abutilon theophrasti) were planted into a blend of loam soil and sand and treated preemergence with test chemicals formulated in a non-phytotoxic solvent mixture which included a surfactant.
At the same time, plants selected from these crop and weed species and also barley (winter barley, Hordeum vulgare), canarygrass (Phalaris minor), chickweed (common chickweed, Stellaria media) windgrass (Apera spica-venti) and deadnettle (henbit deadnettle, Lamium amplexicaule) were planted in pots containing Redi-Earth® planting medium (Scotts Company, 14111 Scottslawn Road, Marysville, Ohio 43041) comprising spaghnum peat moss, vermiculite, wetting agent and starter nutrients and treated with postemergence applications of test chemicals formulated in the same manner. Plants ranged in height from 2 to 18 cm (1- to 4-leaf stage) for postemergence treatments.
as §2, with “13” for “14”, “15” for “21”, “C,” for “E,”

corn (Zea mays) = assay: Test F pre-/postemergence: corn
Text: (§3) Seeds of plant species selected from corn (Zea mays), soybean (Glycine max), velvetleaf (Abutilon theophrasti), lambsquarters (Chenopodium album), poinsettia, wild (wild poinsettia, Euphorbia heterophylla), pigweed, palmer (palmer pigweed, Amaranthus palmeri), waterhemp (common waterhemp, Amaranthus rudis), surinam grass (Brachiaria decumbens), crabgrass, Brazil (Brazilian crabgrass, Digitaria horizontalis), panicum, fall (fall panicum Panicum dichotomiflorum), crabgrass, large (large crabgrass, Digitaria sanguinalis), foxtail, giant (giant foxtail, Setaria faberii), foxtail, green (green foxtail Setaria viridis), goosegrass (Eleusine indica), ragweed (common ragweed, Ambrosia elatior), barnyardgrass (Echinochloa crus-galli), sandbur (southern sandbur, Cenchrus echinatus), arrowleaf sida (Sida rhombifolia), ryegrass, Italian (Italian ryegrass, Lolium multiflorum), dayflower, VA (Virginia (VA) dayflower, Commelina virginica), field bindweed (Convolvulus arvensis), cocklebur (common cocklebur, Xanthium strumarium), morningglory (Ipomoea coccinea), nightshade (eastern black nightshade, Solanum ptycanthum), kochia (Kochia scoparia), nutsedge, yellow (yellow nutsedge, Cyperus esculentus), johnsongrass (Sorghum halepense), smartweed (ladysthumb smartweed, Polygonum persicaria), and beggarticks (hairy beggarticks, Bidens pilosa), were planted into a silt loam soil and treated preemergence with test chemicals formulated in a non-phytotoxic solvent mixture which included a surfactant. At the same time, plants selected from these crop and weed species and also pigweed (Amaranthus retroflexus), waterhemp_RES1 (ALS/Triazine resistant common waterhemp, Amaranthus rudis) and waterhemp_RES2 (ALS/HPPD resistant common waterhemp, Amaranthus rudis) were planted in pots containing a planting medium comprising spaghnum peat moss, vermiculite, wetting agent and starter nutrients treated with postemergence applications of some of the test chemicals formulated in the same manner. Plants ranged in height from 2 to 18 cm for postemergence treatments (1- to 4-leaf stage).
as §2

[3] = system: velvetleaf (Abutilon theophrasti); assay: Test F pre-/postemergence: velvetleaf; conditions: Preemergence
Text: as §3, §2

[4] = system: beggarticks (hairy beggarticks, Bidens pilosa); assay: Test F pre-/postemergence: beggarticks
Text: as §3, §2

[5] = Postemergence, 4 g ai/ha, scale 0 to 100
[6] = Postemergence, 8 g ai/ha, scale 0 to 100
[7] = Postemergence, 16 g ai/ha, scale 0 to 100
[8] = Postemergence, 31 g ai/ha, scale 0 to 100
[9] = Postemergence, 62 g ai/ha, scale 0 to 100
[10] = Preemergence, 4 g ai/ha, scale 0 to 100, 0 no effect, 100 complete control
[11] = Preemergence, 8 g ai/ha, scale 0 to 100, 0 no effect, 100 complete control
[12] = Preemergence, 16 g ai/ha, scale 0 to 100 (0 no effect, 100 complete control)
[13] = Preemergence, 31 g ai/ha, scale 0 to 100 (0 no effect, 100 complete control)
[14] = Preemergence, 62 g ai/ha, scale 0 to 100
[15] = Postemergence, 125 g ai/ha, scale 0 to 100

Compound: Cc1nn(-c2ccc(F)cc2)nc1Cc1ccnc(C(F)(F)F)c1 [Compound 16, 4-[[2-(4-fluorophenyl)-5-methyl-2H-1,2,3-triazol-4-yl]methyl]-2-(trifluoromethyl)pyridine]
- Plant response rating: Crabgrass, Brazil ([1]; 8 g ai/ha): 30
- Plant response rating: Crabgrass, Brazil ([1]; 16 g ai/ha): 70
- Plant response rating: Crabgrass, Brazil ([1]; 31 g ai/ha): 95
- Plant response rating: Crabgrass, Brazil ([1]; 62 g ai/ha): 100
- Plant response rating: Crabgrass, Brazil ([1]; 125 g ai/ha): 100
- Plant response rating: Foxtail, Green ([2]; 8 g ai/ha): 60
- Plant response rating: Foxtail, Green ([2]; 16 g ai/ha): 90
- Plant response rating: Foxtail, Green ([2]; 31 g ai/ha): 90
- Plant response rating: Foxtail, Green ([2]; 62 g ai/ha): 100
- Plant response rating: Foxtail, Green ([2]; 125 g ai/ha): 100

Compound: CCc1nn(-c2ccc(F)cc2)nc1Oc1ccnc(C(F)(F)F)c1 [Compound 166]
- Plant response rating, Waterhemp (Waterhemp; Postemergence, 31 g ai/ha, scale 0 to 100 (0 no effect, 100 complete control)): 90

Compound: Cc1nn(-c2ccc(C(F)(F)F)c(F)c2)nc1Cc1ccnc(C(F)(F)F)c1 [Compound 162]
- Plant response rating, Corn (corn (Zea mays); [5]): 5
- Plant response rating, Corn (corn (Zea mays); [6]): 5
- Plant response rating, Corn (corn (Zea mays); [7]): 10
- Plant response rating, Corn (corn (Zea mays); [8]): 10
- Plant response rating, Corn (corn (Zea mays); [9]): 10
- Plant response rating, Corn (corn (Zea mays); [10]): 0
- Plant response rating, Corn (corn (Zea mays); [11]): 0
- Plant response rating, Corn (corn (Zea mays); [12]): 0
- Plant response rating, Corn (corn (Zea mays); [13]): 0
- Plant response rating, Corn (corn (Zea mays); [14]): 0
- Plant response rating, Velvetleaf ([3]; 4 g ai/ha, scale 0 to 100, 0 no effect, 100 complete control): 0
- Plant response rating, Velvetleaf ([3]; 8 g ai/ha, scale 0 to 100, 0 no effect, 100 complete control): 0
- Plant response rating, Velvetleaf ([3]; 16 g ai/ha, scale 0 to 100 (0 no effect, 100 complete control)): 0
- Plant response rating, Velvetleaf ([3]; 31 g ai/ha, scale 0 to 100 (0 no effect, 100 complete control)): 0
- Plant response rating, Beggarticks [4, 5]: 15
- Plant response rating, Beggarticks [4, 6]: 20
- Plant response rating, Beggarticks [4, 7]: 25
- Plant response rating, Beggarticks [4, 8]: 25
- Plant response rating, Beggarticks [4, 9]: 30
- Plant response rating, Beggarticks [4, 10]: 0
- Plant response rating, Beggarticks [4, 11]: 0
- Plant response rating, Beggarticks [4, 12]: 0
- Plant response rating, Beggarticks [4, 13]: 0
- Plant response rating, Beggarticks [4, 14]: 0
- Plant response rating, Waterhemp (Waterhemp; Preemergence, 250 g ai/ha, scale 0 to 100, 0 no effect, 100 complete control): 100

Compound: Cc1nn(-c2ccc(F)c(F)c2)nc1Oc1ccnc(C(F)(F)F)c1 [Compound 145]
- Plant response rating, Corn (corn (Zea mays); [6]): 5
- Plant response rating, Corn (corn (Zea mays); [7]): 10
- Plant response rating, Corn (corn (Zea mays); [8]): 10
- Plant response rating, Corn (corn (Zea mays); [9]): 10
- Plant response rating, Corn (corn (Zea mays); [15]): 10
- Plant response rating, Beggarticks [4, 6]: 10
- Plant response rating, Beggarticks [4, 7]: 25
- Plant response rating, Beggarticks [4, 8]: 30
- Plant response rating, Beggarticks [4, 9]: 35
- Plant response rating, Beggarticks [4, 15]: 45
